system: rLTR4-3′Cy5 (parallel RNA G4); test: Ligand-induced fluorescence quenching assay (FQA), rLTR4-3′Cy5; assay type: binding, HIV-1; settings: +10µM ds26
Protocol: Cy5 labelled oligonucleotides were purchased lyophilized and RP-cartridge purified from Eurogentec (Kanaka Eurogentec, Seraing, Belgium). The ligand-induced fluorescence quenching assay was conducted as previously described.[47] A Stratagene Mx3005P instrument was used to carry out the assay in 96-well plates. The filters for excitation and emission were set at 635 nm and 665 nm, respectively. The gain was used at 8×. The labeled oligonucleotide was used at 10 nM, and the buffer was 10 mM lithium cacodylate (pH 7.2), 10 mM KCl, and 90 mM LiCl in a final volume of 50 μL. The oligonucleotide was heated at 90 °C for 5 min and put in ice to anneal. The ligand was added over a range of concentrations between 0 and 80 μM. A competitor, ds26, was also added at 3 or 10 μM. Each experimental condition was tested in triplicate except for the ligand alone with the buffer, which was tested in duplicate. The instrument was programmed to heat the plate for 10 min at 25 °C and measure the fluorescence after 1 min for 5 cycles. The fluorescence of each sample was normalized, and the fluorescence of the ligand alone was subtracted.
We then addressed the binding of the DBA series to the rLTR4 RNA G4. The FRET melting assay was not appropriate for investigating ligand binding to this RNAs due to its high thermal stability (Tm > 72 °C).[26] We have therefore used a ligand-induced fluorescence quenching assay (FQA) to analyse the interaction of the DBAs with either 5′ or 3′ fluorescently labelled RNAs (Fig. S8). Since planar G4-ligands generally stack on an accessible G-quartet,[94–96] we expect the DBAs to also recognize G4s by stacking interactions. To conduct a fluorescence quenching experiment, a CY5 fluorophore is attached on the 3′ or 5′ end of the RNA. […] Thus, upon interaction of the ligand with the G-quartet, the ligand induces the quenching of the fluorescence emission. This test enables determination of the apparent association constants (Ka) of each DBA with the 5′ or 3′ quartet of the G4 structure (Fig. 4, Table S3). […] A similar difference in G-tetrad binding affinities has previously been observed for TMPyP4 and PhenDC3.[47]
The fluorescently labeled oligonucleotides were dissolved at a concentration of 10 nM in 10 mM lithium cacodylate buffer (pH 7.2) with 10 mM KCl and 90 mM LiCl. […] Data are the results of at least three independent experiments in which each data point was performed in duplicate.

SMILES	Ka rLTR4-3′Cy5 FQA	Kd [µM]
COc1ccc2c(ccc3c2cc2c4ccc(OC)cc4ccc2[n+]3-c2ccccc2)c1 [DBA1]	2.8±0.23 10^5 M	3.3 ± 0.4
COC(=O)c1ccc(-[n+]2c3ccc4cc(OC)ccc4c3cc3c4ccc(OC)cc4ccc32)cc1 [DBA2]	1.2±0.08 10^5 M	8.6 ± 1.3
COc1ccc(-[n+]2c3ccc4cc(OC)ccc4c3cc3c4ccc(OC)cc4ccc32)cc1 [DBA3]	1.5±0.09 10^5 M	6.9 ± 1.1
COc1ccc2c(ccc3c2cc2c4ccc(OC)cc4ccc2[n+]3-c2ccc([N+](=O)[O-])cc2)c1 [DBA4]	1.9±0.1 10^5 M	5.3 ± 1.1
c1ccc(-[n+]2c3ccc4ccccc4c3cc3c4ccccc4ccc32)cc1 [DBA5]	2.5±0.2 10^5 M	4 ± 0.6

same assay, conditions: No ds26

SMILES	Ka rLTR4-3′Cy5 FQA	Kd [µM]
COc1ccc2c(ccc3c2cc2c4ccc(OC)cc4ccc2[n+]3-c2ccccc2)c1 [DBA1]	3.1±0.2 10^5 M	3.2 ± 0.5
COC(=O)c1ccc(-[n+]2c3ccc4cc(OC)ccc4c3cc3c4ccc(OC)cc4ccc32)cc1 [DBA2]	1.5±0.06 10^5 M	6.7 ± 1.5
COc1ccc(-[n+]2c3ccc4cc(OC)ccc4c3cc3c4ccc(OC)cc4ccc32)cc1 [DBA3]	1.6±0.11 10^5 M	6.2 ± 1
COc1ccc2c(ccc3c2cc2c4ccc(OC)cc4ccc2[n+]3-c2ccc([N+](=O)[O-])cc2)c1 [DBA4]	3.0±0.24 10^5 M	3.3 ± 0.4
c1ccc(-[n+]2c3ccc4ccccc4c3cc3c4ccccc4ccc32)cc1 [DBA5]	2.5±0.31 10^5 M	4 ± 0.3

biological target: DK100 DNA duplex; test: Native ESI-MS, DK100; assay type: binding; settings: 10 μM DNA, 20 μM ligand, 100 mM ammonium acetate; read-out: Kd1 DK100
Protocol: (§1) Oligonucleotides were purchased lyophilized and RP-cartridge purified from Eurogentec (Kanaka Eurogentec, Seraing, Belgium), then buffer exchanged with ammonium acetate (5 M; Sigma-Aldrich, Saint-Quentin-Fallavier, France) using Amicon Ultra (3 K cut-off; Merck Millipore, Cork, Ireland). The concentrations of the initial stock solutions of DNA/RNA (∼1 mM) were measured by UV absorbance at 260 nm. Sample solutions were prepared by diluting the appropriate volume of oligonucleotide stock solutions to reach 10 μM of DNA/RNA and 20 μM of ligand, in 100 mM ammonium acetate. The solutions were incubated for 16 h at 4 °C before analysis by mass spectrometry. […] These parameters ensured a good signal intensity without disrupting noncovalent complexes, which was verified using d[G4T4G4]2 as a control. The presented spectra of all DNA/RNA used in this work (Fig. 5, S9 and S10) result from 8 min accumulations. The abundance of each species, M, M + 1L, M + 2L and M + 3L complexes, where M is a monomer oligonucleotide and L is a ligand, was determined from their peak area signals (A), from the sum of the −4, −5 and −6 charge states for DNA and from the sum of the −5, −6 and −7 charge states for RNA, assuming that their response factors are equal. The molar concentrations were then calculated knowing the total amount of oligonucleotide [M]tot: [drawing 1] [drawing 2] [drawing 3] [drawing 4] The concentration of the free ligand, [L]free, was determined from its total concentration [L]tot:[L]free = [L]tot − [M + 1L] − 2[M + 2L] − 3[M + 3L]Apparent consecutive dissociation constants (Kd1, Kd2 and Kd3) were calculated by using the following equations: [drawing 5] [drawing 6] [drawing 7]
(§2) We further analysed the formation of the DBA/G4 complexes by native electrospray ionization mass spectrometry (ESI-MS). We initially attempted to analyze DBA binding to the primary G4 targets from HIV-1 (HIVpro1, HIVpro2, LTR4 and rLTR4 RNA). […] These sequences span the major G4 topological classes and provide a representative assessment of DBA binding across diverse G4 architectures. We also included two DNA duplex controls (DK100 and DK66) to evaluate binding selectivity. This ESI-MS approach enables direct determination of binding stoichiometry, quantification of each species in solution, and calculation of dissociation constants (Kd) from the relative abundances of free and bound forms.[88,97]
(§3) In the ESI-MS conditions, the rLTR4 G4 (10 μM) forms a dimeric structure. […] Among the six DNA and RNA tested here (Fig. 5B, S9 and S10) only rLTR4 presented 1 : 3 G4/DBA complexes. In all cases but one, the 1 : 1 stoichiometry represents the major species in solution while for rLTR4 it is the 1 : 2 (green). […] For TG4T tetramolecular G4 or G4T4G4 bimolecular G4 only 1 : 1 and 1 : 2 complexes were detected (Fig. S9A and S10A). […] The weakest binding was obtained for the G4T4G4 antiparallel G4 and Htel sequence with Kd1s ranging from 11 μM for to 500 μM (Table 2).

SMILES	Kd [µM]
COc1ccc2c(ccc3c2cc2c4ccc(OC)cc4ccc2[n+]3-c2ccccc2)c1 [DBA1]	1030
COC(=O)c1ccc(-[n+]2c3ccc4cc(OC)ccc4c3cc3c4ccc(OC)cc4ccc32)cc1 [DBA2]	833
COc1ccc(-[n+]2c3ccc4cc(OC)ccc4c3cc3c4ccc(OC)cc4ccc32)cc1 [DBA3]	156
c1ccc(-[n+]2c3ccc4ccccc4c3cc3c4ccccc4ccc32)cc1 [DBA5]	40

same assay, conditions: 10 μM DNA, 20 μM ligand, 100 mM ammonium acetate; read-out: Kd2 DK100

SMILES	Kd [µM]
COc1ccc(-[n+]2c3ccc4cc(OC)ccc4c3cc3c4ccc(OC)cc4ccc32)cc1 [DBA3]	618
COc1ccc2c(ccc3c2cc2c4ccc(OC)cc4ccc2[n+]3-c2ccc([N+](=O)[O-])cc2)c1 [DBA4]	142
c1ccc(-[n+]2c3ccc4ccccc4c3cc3c4ccccc4ccc32)cc1 [DBA5]	67.7

biological target: DK66 DNA duplex; test: Native ESI-MS, DK66; assay type: binding; settings: 10 μM DNA, 20 μM ligand, 100 mM ammonium acetate; read-out: Kd1 DK66
Protocol: as §1, §2, §3

SMILES	Kd [µM]
COc1ccc2c(ccc3c2cc2c4ccc(OC)cc4ccc2[n+]3-c2ccccc2)c1 [DBA1]	4830
COC(=O)c1ccc(-[n+]2c3ccc4cc(OC)ccc4c3cc3c4ccc(OC)cc4ccc32)cc1 [DBA2]	712
COc1ccc(-[n+]2c3ccc4cc(OC)ccc4c3cc3c4ccc(OC)cc4ccc32)cc1 [DBA3]	1070
COc1ccc2c(ccc3c2cc2c4ccc(OC)cc4ccc2[n+]3-c2ccc([N+](=O)[O-])cc2)c1 [DBA4]	165
c1ccc(-[n+]2c3ccc4ccccc4c3cc3c4ccccc4ccc32)cc1 [DBA5]	75.4

same assay, conditions: 10 μM DNA, 20 μM ligand, 100 mM ammonium acetate; read-out: Kd2 DK66

SMILES	Kd [µM]
COc1ccc2c(ccc3c2cc2c4ccc(OC)cc4ccc2[n+]3-c2ccc([N+](=O)[O-])cc2)c1 [DBA4]	308
c1ccc(-[n+]2c3ccc4ccccc4c3cc3c4ccccc4ccc32)cc1 [DBA5]	117

system: not listed separately; test: Cell viability assay (CellTiter 96 AQueous One); assay type: cell-based; settings: human, at 1.56 μM

SMILES	viability at 24 h, 1.56 µM [%]
COc1ccc2c(ccc3c2cc2c4ccc(OC)cc4ccc2[n+]3-c2ccc([N+](=O)[O-])cc2)c1 [DBA4]	100
c1ccc(-[n+]2c3ccc4ccccc4c3cc3c4ccccc4ccc32)cc1 [DBA5]	100

system: HeLa P4 cells; test: Cell viability assay (CellTiter 96 AQueous One); assay type: cell-based; settings: 24 h treatment, formazan quantification; read-out: EC50 (cell viability)

SMILES	EC50 [µM]
c1ccc(-[n+]2c3ccc4ccccc4c3cc3c4ccccc4ccc32)cc1 [DBA5]	~15

same assay, conditions: HeLaP4, 24 h, 24 h treatment, formazan quantification; read-out: EC50 (cell viability)

SMILES	EC50 [µM]
COc1ccc2c(ccc3c2cc2c4ccc(OC)cc4ccc2[n+]3-c2ccccc2)c1 [DBA1]	5.2
COC(=O)c1ccc(-[n+]2c3ccc4cc(OC)ccc4c3cc3c4ccc(OC)cc4ccc32)cc1 [DBA2]	2.9
COc1ccc(-[n+]2c3ccc4cc(OC)ccc4c3cc3c4ccc(OC)cc4ccc32)cc1 [DBA3]	4.3
COc1ccc2c(ccc3c2cc2c4ccc(OC)cc4ccc2[n+]3-c2ccc([N+](=O)[O-])cc2)c1 [DBA4]	~15
c1ccc(-[n+]2c3ccc4ccccc4c3cc3c4ccccc4ccc32)cc1 [DBA5]	16.7

same assay, conditions: HeLaP4, 24 h, read-out: EC50 (cell viability)

SMILES	EC50 [µM]
COc1ccc2c(ccc3c2cc2c4ccc(OC)cc4ccc2[n+]3-c2ccc([N+](=O)[O-])cc2)c1 [DBA4]	15.4

system: Htel (DNA, G4) AGGGTTAGGGTTAGGGTTAGGG; test: native ESI-MS; settings: 100 mM ammonium acetate (NH4+), no K+; apparent, site 1 of 2; 10 μM DNA, 20 μM ligand, 4 °C incubation

SMILES	Kd1 [µM]
COc1ccc2c(ccc3c2cc2c4ccc(OC)cc4ccc2[n+]3-c2ccc([N+](=O)[O-])cc2)c1 [DBA4]	11.21
c1ccc(-[n+]2c3ccc4ccccc4c3cc3c4ccccc4ccc32)cc1 [DBA5]	14.47

system: G4T4G4 (DNA, G4) GGGGTTTTGGGG; test: native ESI-MS; settings: 100 mM ammonium acetate (NH4+), no K+; apparent, site 1 of 2; 10 μM DNA, 20 μM ligand, 4 °C incubation

SMILES	Kd1 [µM]
COc1ccc(-[n+]2c3ccc4cc(OC)ccc4c3cc3c4ccc(OC)cc4ccc32)cc1 [DBA3]	36.88

system: HIV-1; test: not given; settings: at 1.56 μM

SMILES	reduction of viral infectivity
COc1ccc2c(ccc3c2cc2c4ccc(OC)cc4ccc2[n+]3-c2ccc([N+](=O)[O-])cc2)c1 [DBA4]	approximately 20%
c1ccc(-[n+]2c3ccc4ccccc4c3cc3c4ccccc4ccc32)cc1 [DBA5]	~40%

— publication PMC13334477 (RSC Medicinal Chemistry, 2026)
